By IC50 is commonly meant the midpoint of a concentration-inhibition curve. Low values mean greater potency in that assay, high ones weaker potency in that assay.

Data on five compounds can be found in ChEMBL document CHEMBL1681639, “Discovery of substituted 3-(phenylamino)benzoic acids as potent and selective inhibitors of type 5 17β-hydroxysteroid dehydrogenase (AKR1C3)” (Bioorg Med Chem Lett, 2011).

The test has as its target T1, Aldo-keto reductase family 1 member C3 (Homo sapiens, UniProt P42330).
T1 sequence (P42330 whole entry): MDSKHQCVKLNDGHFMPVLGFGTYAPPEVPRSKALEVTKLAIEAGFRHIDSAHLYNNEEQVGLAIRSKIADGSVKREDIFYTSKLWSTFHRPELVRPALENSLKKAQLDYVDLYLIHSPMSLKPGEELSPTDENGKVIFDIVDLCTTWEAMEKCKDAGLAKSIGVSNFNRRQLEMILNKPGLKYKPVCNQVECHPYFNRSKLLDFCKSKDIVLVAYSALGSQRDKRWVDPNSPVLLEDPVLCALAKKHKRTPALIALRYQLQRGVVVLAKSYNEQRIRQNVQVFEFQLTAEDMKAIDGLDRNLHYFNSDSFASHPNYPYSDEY
The test can be described thus: Inhibition of AKR1C3 by fluorimetric method.

`O=C(O)c1cccc(Nc2ccc(Cl)cc2)c1` returned a half-maximal inhibitory concentration (IC50) of 130 nM. In the case of `O=C(O)c1cccc(Nc2ccc(C(F)(F)F)cc2)c1` it was 62 nM; in that of `O=C(O)c1ccccc1Nc1cccc(C(F)(F)F)c1` [FLUFENAMIC ACID], 51 nM; in that of `Cc1ccc(Nc2cccc(C(=O)O)c2)cc1`, 700 nM. In the case of `COc1ccc(Nc2cccc(C(=O)O)c2)cc1` it was 490 nM.
